# Data published in patent publication US12419853B2, “Nanoparticle pharmaceutical delivery system” (ADEIRA PHARMA, LLC, priority 2019, dated 2025).
# How the values were obtained:
# [1] = test system: OVCAR3 human ovarian carcinoma xenograft; assay: OVCAR3 xenograft efficacy; type: in vivo; details: CB.17 SCID mice, 4 mg/kg weekly, four doses
# Protocol: In this three-arm study, a vehicle control was included, which consisted of the nanoparticle emulsion with no cisplatin. A positive control arm included a conventional formulation of free cisplatin dosed at 4 mg/kg. The test arm included the nanoparticle emulsion at a dose of 4 mg/kg.
# 60 female CB.17 SCID mice, aged 8 to 12 weeks, were implanted with 1 mm^3 OVCAR3 tumor fragments in the flank. When the tumors had grown to approximately 100-150 mm^3, pairs were matched by tumor size and treatment began. Dosing was carried out weekly on all three arms, for a total of four doses. Body weight and tumor size for each of the mice was taken every other day. No excess toxicity was noted, as evidenced by body weight and observed behavior of the mice. […] The negative control (labeled ‘vehicle’ in FIG. 6) served as a reference for tumor growth in the absence of cisplatin.
# [2] = Source text: In a fifth alternative example, formulation of a nanoparticle emulsion was attempted as described in example 1, except that no triacetin was used, just safflower oil as the lipid component. […] The maximum solubility was approximately 1000× less than in triacetin.
SMILES,effect on tumor growth [1],"maximum solubility in safflower oil, fold less than in triacetin [2]"
"N.N.[Cl][Pt][Cl] [free cisplatin, cisplatin]",significant reduction in tumor growth,
CC(=O)O[C@H]1C(=O)[C@@]2(C)[C@H]([C@H](OC(=O)c3ccccc3)[C@]3(O)C[C@H](OC(=O)[C@H](O)[C@@H](NC(=O)c4ccccc4)c4ccccc4)C(C)=C1C3(C)C)[C@]1(OC(C)=O)CO[C@@H]1C[C@@H]2O [paclitaxel],,approximately 1000 ×
